Series [1] is described as follows: log p, n-octanol/water partition coefficient by reverse phase HPLC (H2O/CH3CN). Format: physicochemical. The note with it: for chromatographic logP: n-octanol/water.
In series [2] the test system is larvae of the mustard beetle (Phaedon cochleariae). The experiment in a line: Phaedon larvae test. Particulars: active compound concentration 0.01%, after 7 days. Format: in vivo. How it is done: Solvent: 7 parts by weight of dimethylformamide
Emulsifier: 1 part by weight of alkylaryl polyglycol ether
To produce a suitable preparation of active compound, 1 part of weight of active compound is mixed with the stated amount of solvent and the stated amount of emulsifier, and the concentrate is diluted with water to the desired concentration.
After the desired period of time, the kill in % is determined. 100% means that all the beetle larvae have been killed; 0% means that none of the beetle larvae have been killed.

With `CC(C)Oc1ccc(-c2ccc(C3COC(c4ccccc4Cl)=N3)cc2)cc1Cl` (centres unmarked) [Example I-30], the log p result in series [1] (pH 7.5) was “log p (pH 7.5): 5.37”. In series [2], the kill in % stood at 100%. Regarding `Cc1cc(-c2ccc(C3COC(c4ccccc4I)=N3)cc2)ccc1OC(C)C` (centres unmarked) [Example I-67], the log p entry in series [1] (pH 7.5) is recorded as “log p: 5.81 (pH 7.5)”. For `Cc1cc(-c2ccc(C3COC(c4ccccc4C)=N3)cc2)ccc1OC(C)C` (centres unmarked) [Example I-70], in series [1] (pH 7.5), the log p result was “log p: 6.02 (pH 7.5)”. The same measure, in the same setting: to `CC(C)Oc1ccc(-c2ccc(C3COC(c4c(F)cccc4Cl)=N3)cc2)cc1Cl` (centres unmarked) [Example I-71] belongs “log p: 5.25 (pH 7.5)”; to `CCC(C)Oc1ccc(-c2ccc(C3COC(c4c(F)cccc4Cl)=N3)cc2)cc1Cl` (centres unmarked) [Example I-76], “log p: 5.69 (pH 7.5)”. The same measure, in the same setting: for `CC(C)COc1ccc(-c2ccc(C3COC(c4c(F)cccc4Cl)=N3)cc2)cc1Cl` (centres unmarked) [Example I-77] the value was “log p: 5.89 (pH 7.5)”; for `C=CCOc1ccc(-c2ccc(C3COC(c4c(F)cccc4Cl)=N3)cc2)cc1Cl` (centres unmarked) [Example I-80], “log p: 4.99 (pH 7.5)”; for `CCCCCCOc1ccc(-c2ccc(C3COC(c4c(F)cccc4Cl)=N3)cc2)cc1Cl` (centres unmarked) [Example I-83], “log p: 6.68 (pH 7.5)”. With `CCCc1cc(-c2ccc(C3COC(c4c(F)cccc4Cl)=N3)cc2)ccc1OC(C)C` (centres unmarked) [Example I-85], in series [1] (pH 7.5), the log p result was “log p: 6.20 (pH 7.5)”. Take `CCCc1cc(-c2ccc(C3COC(c4c(F)cccc4Cl)=N3)cc2)ccc1OC(C)CC` (centres unmarked) [Example I-86]: the log p entry in series [1] (pH 7.5) is listed as “log p: 6.62 (pH 7.5)”. Turning to `CCCOc1ccc(-c2ccc(C3COC(c4ccccc4F)=N3)cc2)cc1Cl` (centres unmarked) [Example I-87], the log p entry in series [1] (pH 7.5) is “log p: 5.22 (pH 7.5)”.

`CCC(C)Oc1ccc(-c2ccc(C3COC(c4ccccc4F)=N3)cc2)cc1Cl` (centres unmarked) [Example I-89]: the log p result in series [1] (pH 7.5) is listed as “log p: 5.49 (pH 7.5)”. On the same count and under the same terms, for `CC(C)COc1ccc(-c2ccc(C3COC(c4ccccc4F)=N3)cc2)cc1Cl` (centres unmarked) [Example I-90] the value was “log p: 5.70 (pH 7.5)”. On to `CCCCCCOc1ccc(-c2ccc(C3COC(c4ccccc4F)=N3)cc2)cc1Cl` (centres unmarked) [Example I-96], for which the log p result in series [1] (pH 7.5) is recorded as “log p: 6.48 (pH 7.5)”. On to `CCCc1cc(-c2ccc(C3COC(c4c(F)cccc4Cl)=N3)cc2)ccc1OCC(C)C` (centres unmarked) [Example I-104], for which the log p entry in series [1] (pH 7.5) is reported as “log p: 6.82 (pH 7.5)”.

With `C=CCc1cc(-c2ccc(C3COC(c4c(F)cccc4F)=N3)cc2)cc(CC=C)c1OC(C)CC` (centres unmarked) [Example I-139], in series [1] (pH 7.5), the log p entry is on record as “log p: 6.39”. Same read-out and setting: for `C=CCc1cc(-c2ccc(C3COC(c4ccccc4C)=N3)cc2)cc(Cl)c1OC(C)C` (centres unmarked) [Example I-146] the value was “log p: 6.75 (pH 7.5)”. With `C=CCOc1ccc(-c2ccc(C3COC(c4ccccc4C)=N3)cc2)cc1Cl` (centres unmarked) [Example I-155], the log p entry in series [1] (pH 7.5) is on record as “log p: 5.47 (pH 7.5)”. Still for that read-out and setting: for `C#CCOc1ccc(-c2ccc(C3COC(c4ccccc4C)=N3)cc2)cc1Cl` (centres unmarked) [Example I-156] the value was “log p: 4.81 (pH 7.5)”; for `Cc1cc(-c2ccc(C3COC(c4c(F)cccc4Cl)=N3)cc2)ccc1OC(C)C` (centres unmarked) [Example I-163], “log p: 5.45”. On to `CCC(C)Oc1ccc(-c2ccc(C3COC(c4c(F)cccc4Cl)=N3)cc2)cc1C` (centres unmarked) [Example I-165], for which, in series [1] (pH 7.5), the log p result was “log p: 5.93”. Still for that read-out and setting: for `C=CCc1cc(-c2ccc(C3COC(c4c(F)cccc4Cl)=N3)cc2)ccc1OCCC` (centres unmarked) [Example I-176] the value was “log p: 5.98”. As for `C=CCc1cc(-c2ccc(C3COC(c4c(F)cccc4Cl)=N3)cc2)ccc1OC(C)C` (centres unmarked) [Example I-177], the log p result in series [1] (pH 7.5) was “log p: 5.82”. Turning to `C=CCc1cc(-c2ccc(C3COC(c4c(F)cccc4Cl)=N3)cc2)ccc1OCC(C)C` (centres unmarked) [Example I-178], the log p entry in series [1] (pH 7.5) is on record as “log p: 6.47”. Same read-out and setting: for `C=CCc1cc(-c2ccc(C3COC(c4c(F)cccc4Cl)=N3)cc2)ccc1OC(C)CC` (centres unmarked) [Example I-179] the value was “log p: 6.33”; for `C=CCOc1ccc(-c2ccc(C3COC(c4c(F)cccc4Cl)=N3)cc2)cc1CC=C` (centres unmarked) [Example I-181], “log p: 5.49”; for `C#CCOc1ccc(-c2ccc(C3COC(c4c(F)cccc4Cl)=N3)cc2)cc1CC=C` (centres unmarked) [Example I-182], “log p: 4.81”.

In the case of `Cc1cc(-c2ccc(C3COC(c4ccccc4F)=N3)cc2)ccc1OC(C)C` (centres unmarked) [Example I-190], in series [1] (pH 7.5), the log p entry is reported as “log p: 5.23”. Same read-out and setting: to `Cc1cc(-c2ccc(C3COC(c4ccccc4F)=N3)cc2)ccc1OCC(C)C` (centres unmarked) [Example I-191] belongs “log p: 5.89”; to `CCC(C)Oc1ccc(-c2ccc(C3COC(c4ccccc4F)=N3)cc2)cc1C` (centres unmarked) [Example I-192], “log p: 5.70”.

For `C#CC(C)Oc1ccc(-c2ccc(C3COC(c4ccccc4F)=N3)cc2)cc1C` (centres unmarked) [Example I-196], the log p entry in series [1] (pH 7.5) is “log p: 4.68”. Still for that read-out and setting: for `CCCc1cc(-c2ccc(C3COC(c4ccccc4F)=N3)cc2)ccc1OC(C)C` (centres unmarked) [Example I-202] the value was “log p: 6.03”; for `CCCc1cc(-c2ccc(C3COC(c4ccccc4F)=N3)cc2)ccc1OCC(C)C` (centres unmarked) [Example I-204], “log p: 6.61”. With `CCCc1cc(-c2ccc(C3COC(c4ccccc4F)=N3)cc2)ccc1OC(C)CC` (centres unmarked) [Example I-205], the log p result in series [1] (pH not given) is recorded as “log p: 6.47”. Take `C#CC(C)Oc1ccc(-c2ccc(C3COC(c4ccccc4F)=N3)cc2)cc1CCC` (centres unmarked) [Example I-209]: the log p result in series [1] (pH 7.5) is on record as “log p: 5.32”.

Take `CCCOc1ccc(-c2ccc(C3COC(c4ccccc4F)=N3)cc2)cc1Cl` (centres unmarked) [Example I-216]: the log p result in series [1] (pH 7.5) is given as “log p: 5.22”.

Turning to `CC(C)COc1ccc(-c2ccc(C3COC(c4ccccc4F)=N3)cc2)cc1Cl` (centres unmarked) [Example I-217], the log p result in series [1] (pH 7.5) is listed as “log p: 5.70”. With `CCC(C)Oc1ccc(-c2ccc(C3COC(c4ccccc4F)=N3)cc2)cc1Cl` (centres unmarked) [Example I-218], the log p result in series [1] (pH 7.5) was “log p: 5.49”. With `CCCCCCOc1ccc(-c2ccc(C3COC(c4ccccc4F)=N3)cc2)cc1Cl` (centres unmarked) [Example I-219], the log p entry in series [1] (pH 7.5) is on record as “log p: 6.48”. `C#CCOc1ccc(-c2ccc(C3COC(c4ccccc4F)=N3)cc2)cc1Cl` (centres unmarked) [Example I-221]: the log p entry in series [1] (pH 7.5) is listed as “log p: 4.16”.

Consider `C#CC(C)Oc1ccc(-c2ccc(C3COC(c4ccccc4F)=N3)cc2)cc1Cl` (centres unmarked) [Example I-222], for which the log p entry in series [1] (pH 7.5) is “log p: 4.58”. The same measure, in the same setting: for `Cc1cc(-c2ccc(C3COC(c4ccccc4Cl)=N3)cc2)ccc1OC(C)C` (centres unmarked) [Example I-229] the value was “log p: 5.56”; for `CCCc1cc(-c2ccc(C3COC(c4ccccc4Cl)=N3)cc2)ccc1OC(C)C` (centres unmarked) [Example I-240], “log p: 6.35”. Still for that read-out and setting: for `C=CCc1cc(-c2ccc(C3COC(c4ccccc4Cl)=N3)cc2)ccc1OC(C)C` (centres unmarked) [Example I-250] the value was “log p: 5.93”.

Take `C=CCc1cc(-c2ccc(C3COC(c4ccccc4Cl)=N3)cc2)ccc1OCC(C)C` (centres unmarked) [Example I-251]: in series [1] (pH 7.5), the log p entry is “log p: 6.52”. Turning to `C=CCc1cc(-c2ccc(C3COC(c4ccccc4Br)=N3)cc2)cc(Cl)c1OC(C)C` (centres unmarked) [Example I-281], the log p entry in series [1] (pH 7.5) is given as “log p: 6.35”. For the molecule `C=CCc1cc(-c2ccc(C3COC(c4ccccc4Br)=N3)cc2)cc(Cl)c1OCCCCCC` (centres unmarked) [Example I-282], the log p result in series [1] (pH 7.5) is listed as “log p: 7.36”. On the same count and under the same terms, to `C=CCOc1c(Cl)cc(-c2ccc(C3COC(c4ccccc4Br)=N3)cc2)cc1CC=C` (centres unmarked) [Example I-283] belongs “log p: 6.05”. The same measure, in the same setting: for `C#CCOc1c(Cl)cc(-c2ccc(C3COC(c4ccccc4Br)=N3)cc2)cc1CC=C` (centres unmarked) [Example I-284] the value was “log p: 5.37”; for `C=CCc1cc(-c2ccc(C3COC(c4ccccc4Br)=N3)cc2)ccc1OC(C)C` (centres unmarked) [Example I-291], “log p: 6.02”. With `C=CCOc1ccc(-c2ccc(C3COC(c4ccccc4Br)=N3)cc2)cc1CC=C` (centres unmarked) [Example I-293], in series [1] (pH 7.5), the log p entry is recorded as “log p: 5.66”. Regarding `CC(C)Oc1ccc(-c2ccc(C3COC(c4ccccc4Br)=N3)cc2)cc1Cl` (centres unmarked) [Example I-302], in series [1] (pH 7.5), the log p result is reported as “log p: 5.42”. For the molecule `C=CCOc1ccc(-c2ccc(C3COC(c4ccccc4Br)=N3)cc2)cc1Cl` (centres unmarked) [Example I-304], the log p entry in series [1] (pH 7.5) is recorded as “log p: 5.13”. A word on the chromatographic logP: it is lipophilicity estimated from chromatographic retention. In series [1] (pH 7.5), `C=CCOc1ccc(-c2ccc(C3COC(c4ccccc4C)=N3)cc2)cc1CCC` (centres unmarked) [Example I-314] returned a chromatographic logP of 6.44.

With `CCCc1cc(-c2ccc(C3COC(c4c(F)cccc4F)=N3)cc2)ccc1O` (centres unmarked) [II-1, 2-(2,6-Difluorophenyl)-4-(4-(4-hydroxy-3-n-propylphenyl)phenyl)-2-oxazoline], the chromatographic logP in series [1] (pH 7.5) stood at 3.77. With `C=CCc1cc(-c2ccc(C3COC(c4c(F)cccc4F)=N3)cc2)cc(C)c1O` (centres unmarked) [II-12], the log p entry in series [1] (pH 7.5) was “log p: 3.83”. On the same count and under the same terms, for `C=CCc1cc(-c2ccc(C3COC(c4ccccc4C)=N3)cc2)cc(Cl)c1O` (centres unmarked) [II-14] the value was “log p: 4.75”; for `C=CCc1cc(-c2ccc(C3COC(c4ccccc4Cl)=N3)cc2)cc(C)c1O` (centres unmarked) [II-19], “log p: 4.14”. Still for that read-out and setting: for `C=CCc1cc(-c2ccc(C3COC(c4ccccc4Br)=N3)cc2)cc(Cl)c1O` (centres unmarked) [II-21] the value was “log p: 4.42”. For the molecule `CCc1cc(-c2ccc(C3COC(c4c(F)cccc4F)=N3)cc2)ccc1O` (centres unmarked) [II-24], in series [1] (pH 7.5), the log p entry is given as “log p: 3.42”. In series [1] (pH 2.3), `CCCc1cc(-c2ccc(C(CCl)NC(=O)c3c(F)cccc3F)cc2)ccc1OC(C)=O` (centres unmarked) [VI-1, 2,6-Difluoro-N-[2-chloro-1-(4-(4-acetoxy-3-n-propylphenyl)phenyl)ethyl]-benzamide] returned a chromatographic logP of 3.92.
